According to patent US20230026277A1, “COMPOSITION FOR PREVENTION, ALLEVIATION, OR TREATMENT OF RESPIRATORY DISEASE” (MICROX CO., LTD., priority 2019, published 2023):

Legend:
Assay type in all cases: in vivo
asthma-induced mice = assay: Bronchial hypersensitivity reaction (Rrs value, methacholine), asthma-induced mice; conditions: for bronchial hypersensitivity reaction: Experiment Result 7, orally administered daily, FIG. 21
Protocol: (§1) Eight-week-old female […] mice (Orient Bio Korea Inc., Korea) having no certain pathogen were accommodated in an aseptic laminar-flow cabinet, and bred by supplying a standard solid feed ad libitum. When the following experiment was performed, the mice were made to correspond to 7- to 8-weeks old, and all laboratory animals were managed according to the protocol approved by the Institutional Animal Care and Use Committee of the Chonbuk National University Medical School.
(§2) Also, on days 21 and 28 from the experimental starting date, the mice were put into a plastic box (Plexiglas (Rohm & Haas, Philadelphia, Pa.) exposure chamber; 24.5 cm×40.5 cm×15.0 cm), and 1.5% ovalbumin was evaporated using an ultrasonic nebulizer (NE-U12; output 0.8 mL/min; Omron, Japan), and injected into the box for 30 minutes so that the mice inhaled the evaporated ovalbumin (secondary challenge).
45 mg/kg of sodium pentobarbital was intraperitoneally injected into the mice prepared in Experimental Method 1 to anesthetize the mice, and the airways were cut and an 18 gauge needle was inserted into the airways. Thereafter, the needle was connected to a small-sized animal respirator connected to a computer, and the computer system was adjusted to a respiration rate of 150 breaths per minute. Then, methacholine in the form of aerosol was fed at an increasing concentration of 5.0 to 50 mg/mL so that the mice inhaled the methacholine. Then, an airway response was measured, and indicated as an Rrs value.
Preparation Example 3 (α,δ-NA-L-G) or α,δ N-acetyl-D-glutamine was orally administered to the asthma-induced mice of Experimental Method 1 at a concentration of 200 or 400 μg/kg/day 30 minutes before a secondary airway challenge, and the bronchial hypersensitivity reaction was measured 48 hours after the secondary challenge using the method described in Experimental Method 5. The results are shown in A and B of FIG. 5.

[1] = test system: neutrophils and eosinophils introduced into the airway; assay: Inflammatory cells (neutrophils and eosinophils) in bronchoalveolar lavage fluid, Diff-Quik staining, asthma-induced mice; conditions: asthma-induced mice; for cell numbers of neutrophils and eosinophils: Experiment Result 7, orally administered daily, FIG. 19
Protocol: as §1, §2
(§3) After the mice were anesthetized, a thin tube was inserted into the airway, and a piston process was repeated using a syringe filled with 0.2 mL of physiological saline to obtain a bronchoalveolar lavage fluid. The bronchoalveolar lavage fluid obtained through this piston process was stored at −70° C. when it was not immediately used in the experiments.
50 μL of the bronchoalveolar lavage fluid obtained in Experimental Method 2 was put on a slide used for the cytospin, and centrifuged for 30 minutes. Thereafter, Diff-Quik staining was performed, and inflammatory cells (neutrophils and eosinophils) were observed using a microscope.
Preparation Example 3 (α,δ-NA-L-G) or α,δ N-acetyl-D-glutamine (α,δ-NA-D-G) was orally administered to the asthma-induced mice of Experimental Method 1 daily from the experimental starting date at a concentration of 50, 100, or 200 μg/kg/day, and the cell numbers of neutrophils and eosinophils introduced into the airway through the method of Experimental Method 3 were measured. The results are shown in A and B of FIG. 3. In this case, the cell numbers were measured at 10 hours (neutrophils) or 48 hours (eosinophils) after a secondary challenge.

IL-4, IL-5, and IL-13 = assay: Cytokines in bronchoalveolar lavage fluid by ELISA, asthma-induced mice; conditions: asthma-induced mice; for expression levels of the cytokines (IL-4, IL-5, and IL-13): Experiment Result 7, orally administered daily, FIG. 20
Protocol: as §1, §2, §3
(§4) A level of cytokines in the bronchoalveolar lavage fluid obtained in Experimental Method 2 was measured using an ELISA kit. Here, ELISA kits specifically manufactured for TNF-α, IL-4, IL-5, and IL-13 were used.
Preparation Example 3 (α,δ-NA-L-G) or α,δ N-acetyl-D-glutamine was orally administered to the asthma-induced mice of Experimental Method 1 at a concentration of 100, 200, 400 or 800 μg/kg/day 30 minutes before a secondary airway challenge, and levels of IL-4, IL-5, and IL-13 were measured through the method described above in Experimental Method 4 24 hours after the secondary challenge. The results are shown in A and B of FIG. 4.

CK2α protein = assay: Western blot of CK2α protein in lung of asthma-induced mice; conditions: administered daily; 1 or 2 hours after the secondary challenge; FIG. 10
Protocol: as §2
A tissue was extracted from each of the mice manufactured in Experimental Method 1, and finely ground to a cell level. Thereafter, the cells were lysed in a cell lysis buffer containing a protease inhibitor to obtain a cell lysate. The cell lysate was centrifuged to obtain protein. Then, an equivalent amount of the proteins obtained from the cells were loaded on an SDS-PAGE gel and electrophoresed. The proteins present in the electrophoresed gel were transferred to a PVDF membrane. The PVDF membrane was washed, and added to a blocking buffer in which 5% skim milk was included in a TBS-T buffer, and incubated at room temperature. Then, the PVDF membrane was incubated at room temperature with an antibody diluted 1:1,000 in a TBS-T buffer containing 3% BSA. […] The PVDF membrane was washed three times with a TBS-T buffer, and visualized and quantified using an ECL Western blotting detection reagent. […]
(§5) Specifically, the secondary challenge (ovalbumin injection) was performed according to the method described above in Experimental Method 1, and the lungs were extracted after an hour, and then measured according to the method described above in Experimental Method 7. […] Also, the level of TNF-α corresponding to an NK-κB-dependent cytokine was measured by ELISA according to the method described above in Experimental Method 4. […]
The secondary challenge (ovalbumin injection) was performed according to the method described above in Experimental Method 1, and the lungs were extracted after 1 or 2 hours, and then measured according to the method described above in Experimental Method 7. […]

NF-κB and TNF-α = assay: NF-κB (Western blot) and TNF-α (ELISA) in asthma-induced mice; conditions: administered daily
Protocol: as §2, §4
A tissue was extracted from each of the mice manufactured in Experimental Method 1, and finely ground to a cell level. Thereafter, the cells were lysed in a cell lysis buffer containing a protease inhibitor to obtain a cell lysate. The cell lysate was centrifuged to obtain protein. Then, an equivalent amount of the proteins obtained from the cells were loaded on an SDS-PAGE gel and electrophoresed. The proteins present in the electrophoresed gel were transferred to a PVDF membrane. The PVDF membrane was washed, and added to a blocking buffer in which 5% skim milk was included in a TBS-T buffer, and incubated at room temperature. Then, the PVDF membrane was incubated at room temperature with an antibody diluted 1:1,000 in a TBS-T buffer containing 3% BSA. Then, the PVDF membrane was washed with a TBS-T buffer, and incubated at room temperature for an hour with a dilute solution containing HRP-bound IgG. The PVDF membrane was washed three times with a TBS-T buffer, and visualized and quantified using an ECL Western blotting detection reagent.
Here, antibodies specific to elastin, caspase-3, collagen, MKP-1, p-cPLA, p-p38, NF-κB(p65), CK2α, GAPDH, or β-actin were used in the Western blot.
Specifically, the secondary challenge (ovalbumin injection) was performed according to the method described above in Experimental Method 1, and the lungs were extracted after an hour, and then measured according to the method described above in Experimental Method 7. The results are shown in A of FIG. 9. Also, the level of TNF-α corresponding to an NK-κB-dependent cytokine was measured by ELISA according to the method described above in Experimental Method 4. The results are shown in B of FIG. 9. […]
as §5, with “The” for “Specifically, the”, “30 or 60 minutes,” for “an hour,”

CCOC(=O)[C@H](CCC(=O)NC(C)=O)NC(C)=O [Preparation Example 4, Ethyl 2,5-diacetamido-5-oxopentanoate]
bronchial hypersensitivity reaction (asthma-induced mice): inhibited | cell numbers of neutrophils and eosinophils [1]: decreased | expression levels of the cytokines (IL-4, IL-5, and IL-13) (IL-4, IL-5, and IL-13): decreased

COC(=O)[C@H](CCC(=O)NC(C)=O)NC(C)=O [Preparation Example 6]
bronchial hypersensitivity reaction (asthma-induced mice): inhibited | cell numbers of neutrophils and eosinophils [1]: decreased | expression levels of the cytokines (IL-4, IL-5, and IL-13) (IL-4, IL-5, and IL-13): decreased

Oc1ccc(-c2nc(-c3ccncc3)c(-c3ccc(F)cc3)[nH]2)cc1 [SB202190, reference compound]
level of the CK2α protein (CK2α protein): decreased

Brc1c(Br)c(Br)c2n[nH]nc2c1Br [inhibitor of the CK2α protein, TBBt, reference compound]
level of the presence of the TNF-α protein (NF-κB and TNF-α; ELISA, FIG. 11B): decreased | level of the NF-κB protein (NF-κB and TNF-α; at 30 and 60 minutes after secondary challenge, FIG. 11): decreased

CC(=O)NC(=O)CC[C@H](NC(C)=O)C(=O)OCc1ccccc1 [Preparation Example 2, Benzyl 2,5-diacetamido-5-oxopentanoate]
bronchial hypersensitivity reaction (asthma-induced mice): inhibited | cell numbers of neutrophils and eosinophils [1]: decreased | expression levels of the cytokines (IL-4, IL-5, and IL-13) (IL-4, IL-5, and IL-13): decreased

CC(=O)NC(=O)CC[C@@H](NC(C)=O)C(=O)O [α,δ N-acetyl-D-glutamine, reference compound]
Rrs value (bronchial hypersensitivity reaction) (asthma-induced mice; oral 200 or 400 μg/kg/day 30 minutes before secondary challenge, 48 hours after, methacholine 5.0 to 50 mg/mL, FIG. 5): did not exhibit an inhibitory effect | inflow of the neutrophils and eosinophils into the airway ([1]; oral daily 50, 100 or 200 μg/kg/day, neutrophils 10 hours, eosinophils 48 hours after secondary challenge, FIG. 3): not inhibited | levels of the cytokines (IL-4, IL-5, IL-13) (IL-4, IL-5, and IL-13; oral 100, 200, 400 or 800 μg/kg/day, regardless of the concentration, 24 hours after secondary challenge, FIG. 4B): did not inhibit
